Data on one compound can be found in patent publication EP4361137A1, “PRUNE1 INHIBITORS AND THERAPEUTIC USE THEREOF” (CEINGE Biotecnologie Avanzate Franco Salvatore s.c. a r.l., priority 2022, dated 2024).

“Also recorded” adds a separate entry of the source.

The test system of assay [1] is MMTV-Prune1/Wnt1 cells. Put plainly: Real-time cell migration analysis (cell index). The conditions noted are these: 10 µM and 100 µM, dose dependent. It is filed as cell-based, murine.
Assay [2] concerns MATH1-Prune1/ TP53-/-. The assay is described as follows: Orthotopic implantation of MATH1-Prune1/TP53-/- cells in immunocompetent syngeneic mice, tumor growth. It is filed as in vivo, FVB WT mice. The following applies: for intracranial tumor growth (bioluminescence, photon emission) / BLI signal from the spinal cord (metastasis): 6 mg/kg/day intraperitoneally for 7 days, T17, HCl salt; for BLI signal from the spinal cord (metastasis): ex vivo. The protocol:
MATH1-Prune1/ TP53-/- were implanted into the right cerebellar hemisphere of female (n.10) immunocompetent syngeneic mice model (5 weeks old, strain: FVB WT) to establish intracerebellar MATH1-Prune1/ TP53-/- models. Mice were anaesthetised with Ketamine/ Xylazine (87.5 mg/kg, 12.5 mg/kg, respectively). The mice were then placed in a stereotactic frame by hooking their incisors onto the frame hold. A small skin incision (length, 1 mm) and a burr hole (diameter, 0.7 mm) were created using a microsurgical drill (Fine Science Tools, Foster City, CA, USA of MATH1-Prune1/ TP53-/- (1.5 ×10^5) were resuspended in 10 µL PBS and injected slowly through the burr hole into the right cerebellar hemisphere (stereotactic coordinates from Bregma: anteroposterior, 5.5 mm; right lateral, 2.1 mm; dorsoventral 5.0 mm), with a steady force over 30 s, using a 10-AL, 26-gauge Hamilton Gastight model 1701RN syringe needle (SigmaAldrich) that was inserted perpendicular to the cranial surface. The incision was sutured using Safil polyglycolic acid synthetic absorbable suture (6/0). The mice were kept on a warming blanket after the surgery, to help them to maintain their body temperature. Their mobility and respiratory patterns were observed continuously, and once the mice had recovered from the anaesthesia; they were place in a sterile housing cage. The mice were monitored daily for development of potential neurological deficits. 10 days after the implantation of the cells, the mice were imaged, and tumour growth was evaluated by bioluminescence acquisition using an imaging system (IVIS 3D Illumina; Xenogen/ Caliper). For the acquisitions, the mice were anaesthetised by inhalational of isoflurane, and the D-luciferin (122799; PerkinElmer) (15 mg/mL stock) was injected intraperitoneally (100 µL per 10 g body weight). At 5 min from the luciferin injection, the mice were imaged for 3 min. To quantify the bioluminescence, the integrated fluxes of photons (p/s) within each area of interest were determined using the Living Images Software Package 3.2 (Xenogen-Perkin Elmer). […] After 17 days from tumour implantation (i.e., after one weeks of LEO-AA7.5(S)T treatment), the mice were sacrificed, and the organs were collected for immunohistochemistry and immunofluorescence analyses.
Paraffin sections of the tumor specimens (thickness, 3 µm) were deparaffinised and rehydrated by immersing the slides in Xylene Substitute (A5597; Sigma), as three washes for 5 min each, then serially in 100%, 95%, 70%, 50%, and 30% ethanol (two washes for 10 min, for each), and deionised water (two washes, for 5 min each). The washes were then followed by PBS, PBS containing 0.02% Triton-X 100 (215680010; Acros Organics), and PBS (two washes for 5 min, for each). For antigen retrieval, the slides were immersed in boiling 10 mM sodium citrate buffer (pH 6.0) using a microwave oven, and then maintained at sub-boiling temperature for 10 min. The slides were left to cool at room temperature for 30 min. The sections were then washed by immersion in distilled water for 5 min. To block endogenous peroxidase activity, the tissue sections were placed in a solution with 3.0% hydrogen peroxide in methanol for 15 min. Then, to decrease the nonspecific background fluorescence, the tissues were digested by treating them with a solution containing 0.2% trypsin (T2600000; Sigma-Aldrich) and 0.001% CaCl2 for 10 min at 37 °C, in a humidified chamber. The slides were then washed in PBS, PBS containing 0.02% Triton-X 100 (215680010; Acros Organics), and PBS (two washes for 5 min, for each). The tissue sections were blocked with 6% bovine serum albumin (A9418; Sigma), 5% fetal bovine serum (ECS0180L; Euroclone), and 20 mM MgCl2 in PBS containing 0.02% Triton-X 100, for 1 h at room temperature, and incubated overnight with the primary antibodies at 4 °C in a humidified chamber. […]

For assay [3], the system named is human and murine Prune1. The assay is described as follows: qPCR of PRUNE1 mRNA in MMTV-Prune1/Wnt1 cells. The class given is cell-based. Set-up: dose or concentration left out as unconfirmed. As to the method:
D425.MED and MMTV-Prune1/Wnt1 cells were plated and treated with increasing concentrations of LEO-AA7.5(S)T for 24 hours. Water-treated cells were used as negative control for the experiments.
RNA samples were extracted using TRIzol RNA Isolation Reagent (15596026, Invitrogen), according to the manufacturer instructions. Reverse transcription was performed with 5× All-In-One RT MasterMix (g592; ABM), according to the manufacturer instructions. The reverse transcription products (cDNA) were amplified by qRT-PCR using an RT-PCR system (7900; Applied Biosystems, Foster City, CA, USA). The cDNA preparation was through the cycling method, by incubating the complete reaction mix as follows: cDNA reactions: (37 °C for 10 min and 60 °C for 15 min); Heat-inactivation: 95 °C for 3 min; Hold stage: 4 °C. The targets were detected with the SYBR green approach, using BrightGreen BlasTaq 2× PCR MasterMix (G895; ABM). Human ACTB was used as the housekeeping gene to normalize the quantification cycle (Cq) values of the other genes. […] Relative expression of the target genes was determined using the 2^-ΔΔCq method, as the fold increase compared with the controls. […]

Assay [4] relates to J774A.1 macrophages. The assay is described as follows: M2-polarization of macrophages grown in conditioned media (qPCR). It is filed as cell-based, murine. The conditions noted are these: macrophages 48 h in conditioned media of MMTV-Prune1-Wnt1 cells treated with 10 µM. As to the method: The effects of MMTV-Prune-1/Wnt1 cells upon treatment with LEO-AA7.5(S)T were analyzed for M2-polarization of J774A. 1 murine macrophages. Briefly 1 ×10^6 MMTV-Prune-1/Wnt1 cells were resuspended in 10 mL complete DMEM medium, plated into 10-cm-diameter plates, treated with 10 µM LEO-AA7.5(S)T or water as vehicle control, and grown at 37 °C for 24 h. Then the conditioned media were collected. One day before culture in the conditioned media, J774A.1 macrophages were plated into 10-cm-diameter plates. At the time of the culturing in conditioned media, macrophages were at 50% confluence, and after 6 h of starvation in serum-free medium, the macrophages were grown in conditioned media for 48 h. Each experimental point was carried out in triplicate. After the culturing in the conditioned media, the macrophages were washed with PBS, collected, and used for RNA extraction.
RNA samples were extracted using TRIzol RNA Isolation Reagent (15596026, Invitrogen), according to the manufacturer instructions. […] The targets were detected with the SYBR green approach, using BrightGreen BlasTaq 2× PCR MasterMix (G895; ABM). Human ACTB was used as the housekeeping gene to normalize the quantification cycle (Cq) values of the other genes. […] Relative expression of the target genes was determined using the 2^-ΔΔCq method, as the fold increase compared with the controls. […]
(In general: In qPCR the cycle at which signal appears reflects the starting amount.)

[5] abbreviates: listed as (S)-(1-(4-((4-methoxybenzyl)amino)-1,3,5-triazin-2-yl)piperidin-3-yl)methanol HC.

As for `COc1ccc(CNc2ncnc(N3CCC[C@H](CO)C3)n2)cc1.Cl` [LEO-AA7.5(S)T, (S)-(1-(4-((4-methoxybenzyl)amino)-1,3,5-triazin-2-yl)piperidin-3-yl)methanol HCl salt], the migration rate result in assay [1] is listed as “reduction”. The “intracranial tumor growth (bioluminescence, photon emission)” value is listed as “impairment of tumour growth” in assay [2] and “significantly decreased; also recorded: anti-tumorigenic action” in assay [2] (setting [5]). For the same compound, the “BLI signal from the spinal cord (metastasis)” value in assay [2] was “decrease of metastasis”; in assay [2] (setting [5]), “decreased intensity of BLI signal”. Moreover, in assay [2] (6 mg/kg/day, immunofluorescence of cerebellar tumor sections), the “immunosuppressive T cells (CD4+PD1+FOXP3+ and CD8+PD1+FOXP3+) in the tumor microenvironment” value was “reduced”. Moreover, the “degradation of human and murine Prune transcript” value in assay [3] is listed as “enhance the degradation”. For the same compound, the “levels of M2-polarized marker genes in macrophages” value in assay [4] is “decreased levels”.
